Test results published in publication PMC7725003, “Systematically Studying the Optimal Amino Acid Distribution Patterns of the Amphiphilic Structure by Using the Ultrashort Amphiphiles” (Frontiers in Microbiology, 2020).
Where no end group is shown, it is not given here.

Columns and labels:
E. coli 25922 = assay type: cell-based, Escherichia coli; conditions: 25922, 24 h
Outline: (§1)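 Absorbance at 492 nm after 24 h at 37°C defined the MIC as the lowest peptide level inhibiting 95% of growth. Inoculum was 0.5–1 × 10^6 CFU mL^–1 mid-log cells in MHB; peptides were diluted in 0.2% BSA.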

E. coli O78 = assay type: cell-based, Escherichia coli; conditions: O78, 24 h
Outline: as §1

E. coli UB1005 = assay type: cell-based, Escherichia coli; conditions: UB1005, 24 h
Outline: as §1

S. typhimurium 14028 = assay type: cell-based, Salmonella typhimurium; conditions: 14028, 24 h
Outline: as §1

S. typhimurium 7731 = assay type: cell-based, Salmonella typhimurium; conditions: 7731, 24 h
Outline: as §1

S. pullorum 7913 = assay type: cell-based, Salmonella pullorum; conditions: 7913, 24 h
Outline: as §1

P. aeruginosa 27853 = assay type: cell-based, Pseudomonas aeruginosa; conditions: 27853, 24 h
Outline: as §1

E. coli K88 = tested on: E. coli K88
Protocol: (§2) The antimicrobial activities of the peptides were measured using a method adapted from the National Committee for Clinical Laboratory Standards (NCCLS) with some modifications ([Chou et al., 2016]). The specific procedure for these assays has been previously described. In brief, the bacterial cells were grown to a mid-logarithmic phase and diluted in MHB to an ultimate concentration of 0.5–1 × 10^6 CFU mL^–1. Subsequently, the peptides were consecutively diluted in a 0.2% BSA solution and then added to a bacterial solution in a 96-well plate at identical volumes. After incubation for 24 h at 37°C, the MICs were determined to be the lowest peptide concentration that inhibited 95% of the bacterial growth by monitoring the absorbance at 492 nm using a microplate reader. Subsequently, 50 μL of each incubation mixture was further transferred to agar plates and incubated overnight. […] Every assay was reproduced more than 3 times.

E. coli K99 = tested on: E. coli K99
Protocol: as §2

Gram-negative bacteria [1] = tested on: Gram-negative bacteria
Outline: (§3)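 Broth microdilution adapted from NCCLS: mid-log bacteria diluted in MHB to 0.5–1 × 10^6 CFU mL^–1, mixed with peptides serially diluted in 0.2% BSA. After 24 h at 37°C, MIC taken as the lowest concentration inhibiting 95% of growth by absorbance at 492 nm. Assays repeated more than 3 times.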

Gram-positive bacteria [2] = tested on: Gram-positive bacteria
Outline: as §3

S. aureus 25923 = assay type: cell-based, Staphylococcus aureus; conditions: 25923, 24 h
Outline: as §1

S. aureus 29213 [3] = assay type: cell-based, Staphylococcus aureus; conditions: 29213, 24 h
Outline: as §1

S. epidermidis 12228 = assay type: cell-based, Staphylococcus epidermidis; conditions: 12228, 24 h
Outline: as §1

MRSA 43300 = assay type: cell-based, methicillin-resistant S. aureus; conditions: 43300, 24 h
Outline: as §1

B. subtilis 63501 = assay type: cell-based, Bacillus subtilis; conditions: 63501, 24 h
Outline: as §1

E. faecalis 29212 = assay type: cell-based, Enterococcus faecalis; conditions: 29212, 24 h
Outline: as §1

[4] = tested on: Listeria monocytogenes CGMCC 1.1075; assay type: cell-based; conditions: CGMCC 1.1075, 24 h
Outline: as §1

[5] = tested on: all of the tested bacterial strains; test: Geometric mean of MICs, all tested bacterial strains; assay type: cell-based
Outline: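 Mid-log bacteria at 0.5–1 × 10^6 CFU mL^–1 in MHB with peptides serially diluted in 0.2% BSA, 24 h at 37°C. MIC is the lowest concentration giving 95% growth inhibition by A492. MBC is the lowest giving >99.9% kill on agar subculture, and the GM is taken over all strains.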

E. coli ATCC 25922 = test: Salt sensitivity assay (MIC); assay type: cell-based, Escherichia coli
Outline: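 The salt sensitivity of peptides was tested against E. coli ATCC 25922 using a modified NCCLS broth microdilution MIC method. Mid-log bacteria were diluted in MHB to 0.5–1 × 10^6 CFU mL^–1 and mixed in equal volumes with peptides serially diluted in 0.2% BSA in 96-well plates. Physiological salt was added where specified, and the assay was done three independent times.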

S. aureus 29213 [6] = test: Salt sensitivity assay (MIC); assay type: cell-based, Staphylococcus aureus
Outline: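 MICs determined by broth microdilution in MHB with 0.5–1 × 10^6 CFU/mL, peptides serially diluted in 0.2% BSA, 24 h at 37°C. Medium supplemented with physiological salts (150 mM NaCl, 4.5 mM KCl, 6 μM NH4Cl, 8 μM ZnCl2, 1 mM MgCl2, 2mM CaCl2, 4 μM FeCl3). MIC = lowest concentration inhibiting 95% growth (A492).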

Gram-negative bacteria [7] = conditions: geometric mean of MBCs, 9 Gram-negative strains (Table 2)
Gram-positive bacteria [8] = conditions: geometric mean of MBCs, 7 Gram-positive strains (Table 2)
[9] = MHB, 24 h 37°C, 95% growth inhibition
[10] = value in brackets, >99.9% of cells killed
[11] = therapeutic index TI = MHC/GM MIC

RRLLLRLRL-NH2 [L8]
MBC (E. coli 25922): 32 µM | MIC (E. coli 25922): 16 µM | MBC (E. coli O78): 16 µM | MIC (E. coli O78): 8 µM | MBC (E. coli UB1005): 64 µM | MIC (E. coli UB1005): 32 µM | MBC (S. typhimurium 14028): 64 µM | MIC (S. typhimurium 14028): 32 µM | MBC (S. typhimurium 7731): 64 µM | MIC (S. typhimurium 7731): 32 µM | MBC (S. pullorum 7913): 16 µM | MIC (S. pullorum 7913): 8 µM | MBC (P. aeruginosa 27853): 128 µM | MIC (P. aeruginosa 27853): 64 µM | MIC (E. coli K88; [9]): 4 µM | MBC (E. coli K88; [10]): 8 µM | MIC (E. coli K99; [9]): 16 µM | MBC (E. coli K99; [10]): 32 µM | GM MIC (Gram-negative bacteria [1]; geometric mean of MICs, 9 Gram-negative strains (Table 2)): 17.28 µM | TI, Gram-negative bacteria (Gram-negative bacteria [1]; [11]): 14.81 | GM MIC (Gram-positive bacteria [2]; geometric mean of MICs, 7 Gram-positive strains (Table 2)): 23.78 µM | TI, Gram-positive bacteria (Gram-positive bacteria [2]; [11]): 10.77 | MBC (S. aureus 25923): 128 µM | MIC (S. aureus 25923): 64 µM | MBC (S. aureus 29213 [3]): 64 µM | MIC (S. aureus 29213 [3]): 32 µM | MBC (S. epidermidis 12228): 64 µM | MIC (S. epidermidis 12228): 32 µM | MBC (MRSA 43300): 64 µM | MIC (MRSA 43300): 32 µM | MBC (B. subtilis 63501): 8 µM | MIC (B. subtilis 63501): 4 µM | MIC (E. faecalis 29212): > 64 µM | MBC [4]: 8 µM | MIC [4]: 4 µM | GM, All ([5]; geometric mean of MICs across all tested strains): 19.87 µM | TI, All [5, 11]: 12.88 | MIC, FeCl3 (E. coli ATCC 25922; 4 μM FeCl3): 16 µM | MIC, NH4Cl (E. coli ATCC 25922; 6 μM NH4Cl): 8 µM | MIC, ZnCl2 (E. coli ATCC 25922; 8 μM ZnCl2): 8 µM | MIC, MgCl2 (E. coli ATCC 25922; 1 mM MgCl2): 32 µM | MIC, CaCl2 (E. coli ATCC 25922; 2 mM CaCl2): > 64 µM | MIC, KCl (E. coli ATCC 25922; 4.5 mM KCl): 32 µM | MIC, NaCl (E. coli ATCC 25922; 150 mM NaCl): 64 µM | MIC, Control (E. coli ATCC 25922; no added salt, three independent assays): 16 µM | MIC, FeCl3 (S. aureus 29213 [6]; 4 μM FeCl3): 32 µM | MIC, NH4Cl (S. aureus 29213 [6]; 6 μM NH4Cl): 32 µM | MIC, ZnCl2 (S. aureus 29213 [6]; 8 μM ZnCl2): 32 µM | MIC, MgCl2 (S. aureus 29213 [6]; 1 mM MgCl2): 64 µM | MIC, CaCl2 (S. aureus 29213 [6]; 2 mM CaCl2): > 64 µM | MIC, KCl (S. aureus 29213 [6]; 4.5 mM KCl): 64 µM | GM MBC (Gram-negative bacteria [7]): 32.00 µM | GM MBC (Gram-positive bacteria [8]): 43.07 µM
